System: Caco-2 cells
Assay: Gene expression profiling of Caco-2 cells treated with compounds (Illumina HT-12 arrays, Volcano plots)
Format: cell-based, human
Settings: gene array; for Interleukin-1, beta gene regulation: 24 hours exposure
Experimental: Gene expression profiles were generated from 2.5 μM and 25 μM treatments of Caco-2 cells (ATCC).
All compounds were individually applied to Caco-2 cells (250,000/well). After RNA isolation of each treatment, the isolated RNAs were individually labeled as cDNA probes and applied to Illumina HT-12 array chips.
Key Genes Affected per Gene Class: Using the Inforsense Suite of Data Analysis tool (IDBS), a total of 36 Volcano plots were generated against 36 gene array assays (triplicate array assays per nontreatment and treatment of compounds). […] Genes were identified on both sides of the volcano plots (shaded in gray in FIG. 2) that were at a correlation coefficient of p<0.05.
The human colon adenocarcinoma cell line Caco-2 was cultured in Dulbecco's Modified Eagle's Medium (Sigma-Aldrich) with 4.5 g/l glucose, L-glutamine, NaHCO3 and pyridoxine HCl supplemented with 1% (vol/vol) nonessential amino acids, 1% Na-pyruvate, 1% penicillin/streptomycin, and 10% (vol/vol) heat inactivated fetal calf serum, all purchased from Gibco BRL. Cell cultures were transferred weekly by trypsinization and incubated at 37° C. in a humidified incubator containing 5% CO2. […] Cells were exposed to each compound, respectively, for 24 hours.
Total RNA was isolated according to the TRIzol manufacturer's instructions (Invitrogen). RNA quality was assessed with a 2100 Bioanalyzer (Agilent). RNA from pooled triplicates of the various cell treatments, all with an RNA integrity number >7, was further purified with Qiagen RNeasy columns. From 300 ng of total RNA, the Illumina TotalPrep RNA Amplification kit (Ambion) was used to generate amplified biotinylated cRNA after reverse transcription by the Eberwine procedure. cRNA (900 ng) was hybridized overnight to Illumina HT-12 BeadArrays, which were then washed and stained with streptavidin-Cy3 (Amersham-Pharmacia Biotech) according to the Illumina protocol. Arrays were scanned on a BeadArray Reader (Illumina).
Specific transcripts within the biotinylated cRNA were measured by fluorescent imaging after direct hybridization to HT-12 bead arrays, which contain 12 arrays per slide, each with an average of 15 beads for each of 48,803 probes measuring 37,846 annotated genes and additional transcripts. Raw measurements of the intensity of each bead were captured directly and processed as “bead-level” for the samples, as described below. For both treated and non-treated samples, measurements were processed as “probe-level” data by GenomeStudio software (Illumina). […]

Row | Compound | Interleukin-1, beta gene regulation | interleukin receptor and interleukins affected | similarity of gene profile to prednisone
1 | CC[C@H](/C=C/[C@@H](C)[C@H]1CC[C@H]2[C@@H]3CC=C4C[C@@H](OC(=O)CCC(=O)OCC(=O)[C@@]5(O)CC[C@H]6[C@@H]7CCC8=CC(=O)C=C[C@]8(C)[C@H]7[C@@H](O)C[C@@]65C)CC[C@]4(C)[C@H]3CC[C@]12C)C(C)C [SE-24, Stigmasterol Prednisolone Succinate Diester] | up-regulated | affected | more similar gene profiles to prednisone
2 | Stigmasterol Triethyleneglycol Prednisolone Succinate [SE-22] | up-regulated | – | –

— patent publication US10086082B2, “Plant steroids and uses thereof” (DAVIDSON LOPEZ LLC, priority 2011, dated 2018)
